Experimental data: US11179450B2, “Long chain antigen containing interepitope sequence that promotes antigen presentation to T cells” (MIE UNIVERSITY, priority 2013, dated 2021)

Legend:
[1] = tested on: MA p265 specific CD8+ T cells; assay: Specific CD8+ T cell induction in mice, intracellular cytokine staining (MA p265 epitope); type: in vivo, BALB/c mice; settings: FIG. 6; comparing one to six tyrosines
Method: (§1) Long chain peptide antigens MEN, all containing three types of mouse CD8+ T cell epitope sequences (MA p265 (Sequence No. 27), NY p81 (Sequence No. 29), and mERK2 9m (Sequence No. 28)), were synthesized. The interepitope sequences between the respective epitopes were one to six consecutive tyrosines (Sequence Nos. 1 and 9-12). Vaccines containing the respective long chain peptide antigens were administered to mice in the same manner as in FIG. 1 and the frequencies of CD8+ T cells specific to the respective epitope sequences were measured by the intracellular cytokine staining method.
as §1, with “five” for “one”, “ten” for “six”, “13-15).” for “9-12).”
Each CHP/long chain peptide complex as the vaccine and the CpG oligo DNA as the adjuvant were administered at the same time to a mouse. Administration was performed by subcutaneous injection on the back of the mouse. […]

[2] = tested on: mERK2 9m specific CD8+ T cells; assay: Specific CD8+ T cell induction in mice, intracellular cytokine staining (mERK2 9m epitope); type: in vivo, BALB/c mice
Method: as §1
as §1, with “five” for “one”, “ten” for “six”, “13-15).” for “9-12).”
Each CHP/long chain peptide complex as the vaccine and the CpG oligo DNA as the adjuvant were administered at the same time to a mouse. Administration was performed by subcutaneous injection on the back of the mouse. As the dose, the CHP/long chain peptide complex was administered at 0.05 to 0.1 mg equivalent of long chain peptide per administration. The CpG oligo DNA was administered at 0.05 mg per administration. One week after the final administration, spleen cells were separated by the following procedure from each vaccine-administered mouse. The spleen was isolated from the mouse and removed of blood by rinsing with RPMI1640 medium. After the spleen was triturated using a glass slide, the released cells were collected in RPMI1640 medium. After centrifuging (400×g, 5 minutes, 4° C.), the supernatant was removed and the cells were treated for 1 minute by adding 2 mL of ACK solution. […]

[3] = tested on: CD11c+ cells (dendritic cells); assay: In vitro uptake of FAM-labeled long chain peptide antigens by antigen-presenting cells (dendritic cells); type: cell-based; settings: FIG. 8, complexed with CHP, 10 μg/mL, mouse spleen cells, 60 minutes, in comparison to G6 and P6
Text: Long chain peptide antigens MEN, all containing three types of mouse CD8+ T cell epitope sequences (MA p265 (Sequence No. 27), NY p81 (Sequence No. 29), and mERK2 9m (Sequence No. 28)), were synthesized. The interepitope sequences between the respective epitopes were respectively six consecutive tyrosines (Y6), six consecutive glycines (G6), or six consecutive prolines (P6) (Sequence Nos. 1-3). Each long chain peptide antigen, labeled with the fluorescent dye FAM, was complexed with CHP and administered in vitro to mouse dendritic cells and mouse macrophages. After 60 minutes, the fluorescence uptakes into the respective cells were measured by flow cytometry with the P5 fraction in the figure being deemed to correspond to the dendritic cells and the P6 fraction in the figure being deemed to correspond to the macrophages.
In vitro uptake of the long chain peptide antigens by antigen-presenting cells was measured as follows. Each long chain peptide labeled with a fluorescent dye was complexed with CHP by the method described above. Spleen cells separated from a normal mouse were added at 1×10^6 cells/0.5 mL/well to a 24-well plate. […] The uptake of the fluorescence-labeled long chain peptide antigens by CD11c^+ cells (dendritic cells) and F4/80^+ cells (macrophages) were observed using flow cytometry.

Sequence: SNPARYEFLYYYYYYQYIHSANVLYYYYYYRGPESRLL (Long chain peptide antigen, containing three types of mouse CD8+ T cell epitope sequences (MA p265, NY p81, and mERK2 9m)) [MEN(Y6)]
- induction of specific CD8+ T cells, MA p265 (first epitope) [1]: highest
- induction of specific CD8+ T cells, mERK2 9m (second epitope) ([2]; FIG. 6, comparing one to six tyrosines): observed to some degree
- induction of specific CD8+ T cells, mERK2 9m (second epitope) ([2]; FIG. 7, comparing five to ten tyrosines): highest
- fluorescence uptake into dendritic cells [3]: significantly higher
